The results in this text go back to patent US20230116703A1, “NOVEL ERGOLINES AND METHODS OF TREATING MOOD DISORDERS” (priority 2021, published 2023).

Structures are written as SMILES. pEC50: −log10 of the molar value.

The target of series [1] is T1, 5-HT2A receptor (Homo sapiens, UniProt P28223).
T1 construct: host or cells: HEK293
Briefly: biochemical. Type of series: binding. The following applies: for Ki: 1 nM [^3H]ketanserin, HEK293 stable cell line, read-out: 5-HT2A Receptor Ki (nM) ([^3H]ketanserin). How it is done: Affinity of the test compounds for the 5-HT2A receptor was determined in radioligand binding experiments with [^3H]ketanserin by WuXi AppTec (Hong Kong) Limited, using methods adapted from the literature and under conditions described in Table 1.

A short description of series [2]: Metabolic stability in human liver microsomes (HLM). Type of series: in vitro ADME. Conditions: both sexes, human, pooled human liver microsomes, pH 7.4, 0.50 mg protein per mL. The source says:
HLM Stability. Pooled HLM from adult male and female donors (Corning 452117) were used.
In general terms: Microsomes from liver hold many membrane-bound enzymes, among them those of drug oxidation.

Series [3] addresses 5-HT1B receptor (Homo sapiens, UniProt P28222). Briefly: cAMP accumulation agonist assay at 5-HT1B. Type of series: cell-based. The following applies: cAMP, agonist; for pEC50: read-out: 5-HT1B EC50. How it is done: Disclosed compounds were tested for agonist activity at several serotonin receptor subtypes (5-HT2A, […], 5-HT2C, and 5-HT1A) using Ca^2+ flux functional assays and the 5-HT1B receptor using a cAMP accumulation assay, with the results summarized in Table 4. […] Potent agonist activity was also observed at the other serotonin receptors tested, although the selectivity profile among the receptors varied across compounds. […]. However, at the same time, the N-propyl compounds were more efficacious agonists at 5-HT2B than the corresponding N-methyl compounds. The selectivity of disclosed compounds for 5-HT2A over 5-HT2C and 5-HT1A was less predictable and varied widely across compounds, ranging from ˜1:6 to ˜20:1 (2C/2A) in the case of 5-HT2C and from ˜1:4 to >100:1 (1A/2A) in the case of 5-HT1A. […] An azetidinyl amide substituent tended to increase potency at 5-HT1A relative to 5-HT2A.
Functional Assay at 5-HT1B. Agonist activity at 5-HT1B was determined using a cAMP accumulation protocol at WuXi AppTec (Hong Kong) Limited according to their standard protocols. Briefly, stably transfected cells were plated in an OptiPlate-384 well plate, incubated at RT for 60 mins, and cAMP standard solution (800 nM, 10 μL) was added to the blank well. Then, 10 μL detection reagent was added to each well, the plate incubated for 60 mins at RT, and the plate read using EnVision.
Background: Cyclic AMP is a second messenger, typically raised through Gs and lowered through Gi signalling.

In series [4] the target is T1, 5-HT2A receptor. The series can be described thus: cell-based. Format: cell-based. Conditions: for 5-HT2A % Act @ Max Dose / pEC50: Ca^2+ flux, agonist; for pEC50: read-out: 5-HT2A EC50. On the procedure: (§1) Functional Assays at 5-HT2A, 5-HT2B, and 5-HT1A. Agonist activity at 5-HT2A, 5-HT2B, and 5-HT1A receptors was determined using a FLIPR Ca^2+ flux assay at WuXi AppTec (Hong Kong) Limited according to their standard protocols. Briefly, stably transfected cells expressing the receptor of interest (HEK293 for 5-HT2A and 5-HT2B; CHO cells for 5-HT1A) were grown and plated in a 384 well plate and incubated at 37° C. and 5% CO2 overnight. A solution of 250 mM probenecid in 1 mL FLIPR assay buffer was prepared fresh. This was combined with a fluorescent dye (Fluo-4 Direct™) to make a final assay concentration of 2.5 mM. […] The fluorescent dye was then added to the assay plate along with assay buffer to a final volume of 40 μL. The cell plate was incubated for 50 min at 37° C. and 5% CO2 and placed into the FLIPR Tetra along with the compound plate. 10 μL of references and compounds were then transferred from the compound plate into the cell plate and the fluorescent signal was read.

Series [5] deals with T2, 5-HT1A receptor (Homo sapiens, UniProt P08908).
T2 construct: host or cells: CHO cells
T2 sequence (P08908 1-422): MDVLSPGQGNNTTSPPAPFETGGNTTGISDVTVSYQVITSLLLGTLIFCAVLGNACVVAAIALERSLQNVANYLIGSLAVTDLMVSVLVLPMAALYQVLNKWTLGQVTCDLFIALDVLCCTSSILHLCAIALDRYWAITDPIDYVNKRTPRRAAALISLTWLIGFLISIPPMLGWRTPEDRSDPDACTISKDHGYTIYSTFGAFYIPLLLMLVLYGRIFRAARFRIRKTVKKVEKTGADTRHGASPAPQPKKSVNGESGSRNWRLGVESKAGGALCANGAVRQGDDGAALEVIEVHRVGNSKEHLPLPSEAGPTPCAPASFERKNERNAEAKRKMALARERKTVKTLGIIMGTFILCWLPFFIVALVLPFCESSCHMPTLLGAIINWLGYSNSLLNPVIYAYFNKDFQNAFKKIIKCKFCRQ
Briefly: cell-based. The following applies: Ca^2+ flux, agonist; for pEC50: read-out: 5-HT1A EC50. How it is done:
as §1

Series [6] deals with T3, 5-HT2B receptor (Homo sapiens, UniProt P41595).
T3 construct: host or cells: HEK293
T3 sequence (P41595 whole entry): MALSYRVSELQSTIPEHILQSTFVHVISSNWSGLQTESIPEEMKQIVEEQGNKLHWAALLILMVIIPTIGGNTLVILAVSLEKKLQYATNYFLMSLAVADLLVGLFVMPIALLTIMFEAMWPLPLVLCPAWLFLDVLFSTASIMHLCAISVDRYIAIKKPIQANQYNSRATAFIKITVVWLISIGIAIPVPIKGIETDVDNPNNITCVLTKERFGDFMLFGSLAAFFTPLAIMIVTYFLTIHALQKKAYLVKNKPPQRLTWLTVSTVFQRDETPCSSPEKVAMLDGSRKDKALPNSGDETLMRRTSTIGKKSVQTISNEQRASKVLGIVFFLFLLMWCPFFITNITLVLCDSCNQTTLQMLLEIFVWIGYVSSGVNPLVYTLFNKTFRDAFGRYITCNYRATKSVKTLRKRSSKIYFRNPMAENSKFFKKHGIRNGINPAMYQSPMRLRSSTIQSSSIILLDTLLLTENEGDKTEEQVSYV
Briefly: cell-based. Conditions: Ca^2+ flux, agonist; for pEC50: read-out: 5-HT2B EC50. How it is done:
as §1

T1 sequence (P28223 whole entry): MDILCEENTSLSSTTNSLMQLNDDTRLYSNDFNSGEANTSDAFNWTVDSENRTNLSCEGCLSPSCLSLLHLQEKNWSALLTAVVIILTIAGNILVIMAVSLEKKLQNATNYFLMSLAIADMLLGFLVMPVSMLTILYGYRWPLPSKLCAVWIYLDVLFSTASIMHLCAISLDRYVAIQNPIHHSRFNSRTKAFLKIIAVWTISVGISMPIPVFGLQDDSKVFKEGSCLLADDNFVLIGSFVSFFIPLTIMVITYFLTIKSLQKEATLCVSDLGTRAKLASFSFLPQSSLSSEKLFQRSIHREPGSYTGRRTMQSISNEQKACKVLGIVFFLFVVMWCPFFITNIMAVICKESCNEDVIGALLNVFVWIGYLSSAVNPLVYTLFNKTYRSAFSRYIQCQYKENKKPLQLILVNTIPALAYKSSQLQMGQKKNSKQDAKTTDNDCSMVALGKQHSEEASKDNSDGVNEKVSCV
Sequence of 5-HT1B receptor (P28222 whole entry): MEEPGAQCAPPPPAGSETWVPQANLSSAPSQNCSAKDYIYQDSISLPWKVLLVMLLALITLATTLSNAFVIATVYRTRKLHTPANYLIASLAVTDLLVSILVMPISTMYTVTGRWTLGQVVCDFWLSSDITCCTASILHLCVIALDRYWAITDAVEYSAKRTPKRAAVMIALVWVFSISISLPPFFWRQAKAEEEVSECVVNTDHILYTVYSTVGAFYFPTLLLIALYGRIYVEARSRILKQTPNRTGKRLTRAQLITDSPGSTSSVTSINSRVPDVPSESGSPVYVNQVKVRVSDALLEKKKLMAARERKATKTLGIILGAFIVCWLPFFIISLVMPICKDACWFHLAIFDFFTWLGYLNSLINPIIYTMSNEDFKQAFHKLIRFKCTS

Usually Ki stands for a measure of affinity in units of concentration, obtained from inhibition or displacement. In general, half-life refers to the time in which the quantity being followed falls by half. Lower therefore signals rapid decline. Usually microsomal CLint stands for the capacity of the preparation to metabolise the compound, expressed as a volume cleared per time. The term pEC50 denotes the EC50 on a negative log10 scale, so that one unit is a factor of ten. In the case of `C=CCN1C[C@H](C(=O)N2[C@@H](C)C[C@@H]2C)C=C2c3cccc4[nH]cc(c34)C[C@H]21` [Compound 27, ((6aR,9R)-7-allyl-4,6,6a,7,8,9-hexahydroindolo[4,3-fg]quinolin-9-yl)((2S,4S)-2,4-dimethylazetidin-1-yl)methanone], the Ki in series [1] was determined as 8.96 nM. In series [2], this compound registered a half-life at 1 μM of 16.1 min and a microsomal CLint at 1 μM of 86.1 µL/min/mg. Further, in series [3], the “5-HT1B % Act @ Max Dose” value is given as 96.92% and the negative logarithm of the EC50 (pEC50) was 7.05. Further, in series [4], the “5-HT2A % Act @ Max Dose” value is 81.1% and the pEC50 is 7.92. Moreover, in series [5], the “5-HT1A % Act @ Max Dose” value came out at 90.8% and the pEC50 was 8.53. In series [6], the “5-HT2B % Act @ Max Dose” value is 96.0% and the pEC50 was 6.45.

`CN1C[C@H](C(=O)N2CCCC2)C=C2c3cccc4[nH]cc(c34)C[C@H]21` [Int22, ((6aR,9R)-7-methyl-4,6,6a,7,8,9-hexahydroindolo[4,3-fg]quinolin-9-yl)(pyrrolidin-1-yl)methanone]: the Ki in series [1] is 14.9 nM. Also, in series [2], the half-life at 1 μM was above 145 min and the microsomal CLint at 1 μM is below 9.6 µL/min/mg. In series [3], the “5-HT1B % Act @ Max Dose” value came out at 94.25% and the pEC50 was 8.13. In series [4], the “5-HT2A % Act @ Max Dose” value was 89.65% and the pEC50 is 7.68. In addition, in series [5], the “5-HT1A % Act @ Max Dose” value was 103.7% and the pEC50 was 8.05. In addition, in series [6], the “5-HT2B % Act @ Max Dose” value is 21.35% and the pEC50 is 7.26.

With `CCN(CC)C(=O)[C@@H]1C=C2c3cccc4[nH]c(Br)c(c34)C[C@H]2N(CCC(F)(F)F)C1` [Compound 42, (6aR,9R)-5-bromo-N,N-diethyl-7-(3,3,3-trifluoropropyl)-4,6,6a,7,8,9-hexahydroindolo[4,3-fg]quinoline-9-carboxamide], the Ki in series [1] was determined as 1.84 nM. Moreover, in series [2], the half-life at 1 μM was determined as 11.1 min and the microsomal CLint at 1 μM is 125 µL/min/mg. Also, in series [3], the “5-HT1B % Act @ Max Dose” value is 33.13% and the negative logarithm of the EC50 (pEC50) is below 5.00. The “agonist activity at serotonin receptors (in words)” value in series [4] (Ca^2+ flux / cAMP functional assays, receptors tested) is on record as “no agonist activity”. In addition, in series [4], the “5-HT2A % Act @ Max Dose” value is given as 8.29% and the negative logarithm of the EC50 (pEC50) was below 6.00. In series [5], the “5-HT1A % Act @ Max Dose” value was 9.13% and the pEC50 is below 5.00. In addition, in series [6], the “5-HT2B % Act @ Max Dose” value is 2.58% and the pEC50 was below 5.00.

Consider `CCCN1C[C@H](C(=O)N(CC)CC)C=C2c3cccc4c3C(CN4)C[C@H]21` (mixture of isomers) [Compound 36, (6aR,9R)—N,N-diethyl-7-propyl-4,5,5a,6,6a,7,8,9-octahydroindolo[4,3-fg]quinoline-9-carboxamide], for which, in series [1], the Ki amounted to 10.7 nM. Moreover, in series [1] (radioligand binding), the “5-HT2A receptor binding affinity / potency (in words)” value is “reduced in potency”. In series [2], the half-life at 1 μM came out at 32.8 min and the intrinsic clearance (microsomal CLint) at 1 μM is 42.2 µL/min/mg. In addition, in series [3], the “5-HT1B % Act @ Max Dose” value was found to be 97.51% and the pEC50 was 7.64. In series [4], the “5-HT2A % Act @ Max Dose” value stood at 77.54% and the pEC50 was 7.30. For the same compound, in series [5], the “5-HT1A % Act @ Max Dose” value is 88.68% and the pEC50 was 8.32. Besides, in series [6], the “5-HT2B % Act @ Max Dose” value is recorded as 110.53% and the pEC50 is 6.20.

Turning to `C[C@H]1C[C@H](C)N1C(=O)[C@@H]1C=C2c3cccc4[nH]cc(c34)C[C@H]2N(CCCF)C1` [Compound 26, ((2S,4S)-2,4-dimethylazetidin-1-yl)((6aR,9R)-7-(3-fluoropropyl)-4,6,6a,7,8,9-hexahydroindolo[4,3-fg]quinolin-9-yl)methanone], the Ki in series [1] came out at 11.3 nM. In series [2], this compound yielded a half-life at 1 μM of 20.5 min and an intrinsic clearance (microsomal CLint) at 1 μM of 67.7 µL/min/mg. Besides, in series [3], the “5-HT1B % Act @ Max Dose” value was determined as 77.16% and the negative logarithm of the EC50 (pEC50) is 6.13. Moreover, in series [4], the “5-HT2A % Act @ Max Dose” value was 83.23% and the negative-log EC50 (pEC50) is 7.81. For the same compound, in series [5], the “5-HT1A % Act @ Max Dose” value is 97.94% and the pEC50 is 8.44. In series [6], the “5-HT2B % Act @ Max Dose” value is 100.66% and the pEC50 is 6.37.

Take `CN1C[C@H](C(=O)N(CCF)CCF)C=C2c3cccc4[nH]cc(c34)C[C@H]21` [Compound 38, (6aR,9R)—N,N-bis(2-fluoroethyl)-7-methyl-4,6,6a,7,8,9-hexahydroindolo[4,3-fg]quinoline-9-carboxamide]: the Ki in series [1] is 0.84 nM. Moreover, in series [2], the half-life at 1 μM turned out to be 64 min and the microsomal CLint at 1 μM turned out to be 21.6 µL/min/mg. In series [3], the “5-HT1B % Act @ Max Dose” value is recorded as 94.72% and the negative logarithm of the EC50 (pEC50) is 8.33. For the same compound, in series [4], the “5-HT2A % Act @ Max Dose” value was 93.39% and the pEC50 is 7.93. In addition, in series [5], the “5-HT1A % Act @ Max Dose” value was 90.5% and the pEC50 was 8.46. For the same compound, in series [6], the “5-HT2B % Act @ Max Dose” value was determined as 28.13% and the pEC50 is 7.65.

Consider `CCC[C@@H](C)NC(=O)[C@@H]1C=C2c3cccc4[nH]c(Br)c(c34)C[C@H]2N(C)C1` [Compound 45, (6aR,9R)-5-bromo-N—((R)-pentan-2-yl)-7-methyl-4,6,6a,7,8,9-hexahydroindolo[4,3-fg]quinoline-9-carboxamide], for which the Ki in series [1] worked out at 0.38 nM. In series [2], the half-life at 1 μM was 7.9 min and the microsomal CLint at 1 μM came out at 176 µL/min/mg. Moreover, in series [3], the “5-HT1B % Act @ Max Dose” value amounted to 87.10% and the negative logarithm of the EC50 (pEC50) is 6.61. In series [4], the “5-HT2A % Act @ Max Dose” value is reported as 22.28% and the pEC50 was 6.88. In series [5], the “5-HT1A % Act @ Max Dose” value came to 12.53% and the pEC50 is below 5.00. Also, in series [6], the “5-HT2B % Act @ Max Dose” value was −0.31% and the pEC50 is below 5.00.

In the case of `CCCN1C[C@H](C(=O)N[C@H](C)CC)C=C2c3cccc4[nH]c(Br)c(c34)C[C@H]21` [Compound 46, (6aR,9R)-5-bromo-N—((R)-sec-butyl)-7-propyl-4,6,6a,7,8,9-hexahydroindolo[4,3-fg]quinoline-9-carboxamide], the inhibitory constant (Ki) in series [1] came out at 1.03 nM. In series [2], the half-life at 1 μM stood at 3.2 min and the microsomal CLint at 1 μM was found to be 427 µL/min/mg. Besides, in series [3], the “5-HT1B % Act @ Max Dose” value worked out at 78.76% and the pEC50 is 5.93. In series [4], the “5-HT2A % Act @ Max Dose” value amounted to 69.48% and the pEC50 was 6.96. In series [5], the “5-HT1A % Act @ Max Dose” value was found to be 69.48% and the pEC50 was 6.15. In series [6], the “5-HT2B % Act @ Max Dose” value stood at 79.00% and the pEC50 is 6.10.
